Data reported in patent US11555012B2 (Nimbus Artemis, Inc., priority 2018, dated 2023).

What was measured:
[1] = molecular target: T1, ACL (Homo sapiens (Human), UniProt P53396); assay: ACLY-MDH Coupled Assay
Target sequence in this assay (P53396 whole entry, species assumed): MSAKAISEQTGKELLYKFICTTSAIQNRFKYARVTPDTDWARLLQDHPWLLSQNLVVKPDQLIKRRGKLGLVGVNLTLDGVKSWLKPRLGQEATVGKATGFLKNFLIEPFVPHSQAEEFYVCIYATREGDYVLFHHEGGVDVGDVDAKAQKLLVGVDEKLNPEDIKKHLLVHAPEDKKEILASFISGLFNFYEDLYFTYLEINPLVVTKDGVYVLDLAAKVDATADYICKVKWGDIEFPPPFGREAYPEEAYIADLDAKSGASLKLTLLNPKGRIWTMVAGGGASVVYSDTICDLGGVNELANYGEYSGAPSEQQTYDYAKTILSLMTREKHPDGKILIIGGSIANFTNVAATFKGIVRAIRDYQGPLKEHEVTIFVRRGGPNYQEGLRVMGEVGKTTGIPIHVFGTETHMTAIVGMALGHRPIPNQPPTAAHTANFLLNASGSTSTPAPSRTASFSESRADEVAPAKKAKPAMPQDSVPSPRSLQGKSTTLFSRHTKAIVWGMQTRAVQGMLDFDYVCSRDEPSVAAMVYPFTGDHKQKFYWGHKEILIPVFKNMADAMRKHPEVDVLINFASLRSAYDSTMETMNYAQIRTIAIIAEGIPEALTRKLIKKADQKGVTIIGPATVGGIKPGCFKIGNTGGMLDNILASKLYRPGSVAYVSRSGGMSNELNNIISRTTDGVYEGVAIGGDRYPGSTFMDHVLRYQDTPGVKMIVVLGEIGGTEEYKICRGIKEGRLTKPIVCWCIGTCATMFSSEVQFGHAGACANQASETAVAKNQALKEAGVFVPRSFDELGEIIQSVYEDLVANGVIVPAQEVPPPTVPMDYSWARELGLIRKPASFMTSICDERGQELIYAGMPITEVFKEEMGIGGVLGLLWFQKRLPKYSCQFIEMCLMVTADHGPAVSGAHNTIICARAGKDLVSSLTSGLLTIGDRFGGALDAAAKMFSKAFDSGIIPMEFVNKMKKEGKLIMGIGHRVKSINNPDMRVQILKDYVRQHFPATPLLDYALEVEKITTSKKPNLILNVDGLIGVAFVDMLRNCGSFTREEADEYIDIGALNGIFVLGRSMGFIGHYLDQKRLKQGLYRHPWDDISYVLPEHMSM
Description: Compounds of the present invention were evaluated in an ACLY Coupled Assay.
The assay protocol for the Coupled Assay (below) was followed:
b) Add 1 μL cpds to 96 assay plate, Test cpd conc: 100/30/10 μM top dose, 3 folds dilution, 10+0+control (control: buffer without ACL+DMSO) points, 1000 rpm for 1 min, incubation at 25° C. for 60 min

[2] = molecular target: T1, ACL; assay: ADP-Glo Assay
Target sequence in this assay (P53396 other isoform, or with tags, fused parts or gaps isoform P53396-2): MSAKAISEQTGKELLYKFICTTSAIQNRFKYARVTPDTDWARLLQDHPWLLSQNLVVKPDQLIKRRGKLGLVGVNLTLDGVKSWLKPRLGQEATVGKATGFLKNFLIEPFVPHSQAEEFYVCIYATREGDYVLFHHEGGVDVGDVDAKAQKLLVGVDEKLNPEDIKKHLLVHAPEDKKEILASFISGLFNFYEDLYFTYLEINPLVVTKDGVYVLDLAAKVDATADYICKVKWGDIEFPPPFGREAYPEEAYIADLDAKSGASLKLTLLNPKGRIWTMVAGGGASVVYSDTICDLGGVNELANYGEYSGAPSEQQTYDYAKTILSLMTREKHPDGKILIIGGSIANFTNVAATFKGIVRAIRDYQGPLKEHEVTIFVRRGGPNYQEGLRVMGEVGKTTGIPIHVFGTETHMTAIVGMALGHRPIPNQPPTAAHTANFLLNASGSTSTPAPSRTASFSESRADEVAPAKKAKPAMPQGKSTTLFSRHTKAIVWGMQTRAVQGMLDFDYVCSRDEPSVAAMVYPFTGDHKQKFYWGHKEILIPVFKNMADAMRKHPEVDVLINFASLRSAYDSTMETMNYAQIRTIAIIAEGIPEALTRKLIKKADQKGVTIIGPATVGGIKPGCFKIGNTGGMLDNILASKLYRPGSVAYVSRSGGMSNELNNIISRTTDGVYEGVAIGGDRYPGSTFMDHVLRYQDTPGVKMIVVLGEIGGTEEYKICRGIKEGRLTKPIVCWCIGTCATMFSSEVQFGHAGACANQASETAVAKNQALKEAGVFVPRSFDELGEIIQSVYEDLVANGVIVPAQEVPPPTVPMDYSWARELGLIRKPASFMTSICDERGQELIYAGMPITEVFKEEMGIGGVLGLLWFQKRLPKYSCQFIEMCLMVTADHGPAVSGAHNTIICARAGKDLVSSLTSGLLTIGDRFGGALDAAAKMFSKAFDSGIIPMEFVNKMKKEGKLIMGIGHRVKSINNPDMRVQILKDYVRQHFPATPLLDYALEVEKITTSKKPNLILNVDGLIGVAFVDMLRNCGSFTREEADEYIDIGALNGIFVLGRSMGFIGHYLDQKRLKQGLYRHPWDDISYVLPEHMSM

[3] = read-out: ACL-ADP-Glo (IC50), 3 nM ACL, 15 μM ATP, 3 μM CoA, 300 μM Citrate
[4] = read-out: ACL-MDH Coupled Assay (IC50), 8 nM ACL, 60 μM CoA Na2, 85 μM Citrate, 250 μM ATP, 250 μM NADH

`O=C(c1cc(Cl)c(O)c(S(=O)(=O)Nc2cc(-c3ccccc3)c(F)cc2F)c1)N1CC[C@@H](O)C1` [I-106, (R)-3-chloro-N-(4,6-difluoro-[1,1′-biphenyl]-3-yl)-2-hydroxy-5-(3-hydroxypyrrolidine-1-carbonyl)benzenesulfonamide] showed an IC50 [1] of 50 to 500 nM and an IC50 [2, 3] of under 50 nM.

`O=C(O)c1cc(Cl)c(O)c(S(=O)(=O)Nc2cc(-c3ccccc3)ccc2F)c1` [I-107, 3-chloro-5-[(2-fluoro-5-phenylphenyl)sulfamoyl]-4-hydroxybenzoic Acid] gave an IC50 [1] of 500 to 30000 nM and an IC50 [2] of 500 to 20000 nM.

With `CC(=O)NCCOC(=O)c1cc(Cl)c(O)c(S(=O)(=O)Nc2cc(-c3ccccc3)c(F)cc2F)c1` [I-112, 2-acetamidoethyl 3-chloro-5-(N-(4,6-difluoro-[1,1′-biphenyl]-3-yl)sulfamoyl)-4-hydroxybenzoate] the IC50 [1] was 50 to 500 nM and the IC50 [2, 3] was under 50 nM.

Work on `O=C(O)c1cc(Cl)c(O)c(S(=O)(=O)Nc2cc(-c3ccccc3)cc(F)c2F)c1` [I-115, 3-chloro-5-[(2,3-difluoro-5-phenylphenyl)sulfamoyl]-4-hydroxybenzoic Acid] yielded an IC50 [1] of 500 to 30000 nM and an IC50 [2] of 500 to 20000 nM.

Molecule `O=C(c1cc(Cl)c(O)c(S(=O)(=O)Nc2cc(-c3ccccc3)c(F)cc2F)c1)N1CC[C@H](F)C1` [I-118, (S)-3-chloro-N-(4,6-difluoro-[1,1′-biphenyl]-3-yl)-5-(3-fluoropyrrolidin-1-carbonyl)-2-hydroxybenzenesulfonamide] has an IC50 [1] of 50 to 500 nM and an IC50 [2, 3] of under 50 nM.

Molecule `O=C(c1cc(Cl)c(O)c(S(=O)(=O)Nc2cc(-c3ccccc3)c(F)cc2F)c1)N1CC[C@@H](F)C1` [I-119, (R)-3-chloro-N-(4,6-difluoro-[1,1′-biphenyl]-3-yl)-5-(3-fluoropyrrolidine-1-carbonyl)-2-hydroxybenzenesulfonamide] has an IC50 [1] of 50 to 500 nM and an IC50 [2, 3] of under 50 nM.

`CS(=O)(=O)c1cc(Cl)c(O)c(S(=O)(=O)Nc2cc(-c3ccccc3)c(F)cc2F)c1` [I-124, 3-chloro-N-[4,6-difluoro-[1,1-biphenyl]-3-yl]-2-hydroxy-5-methanesulfonylbenzene-1-sulfonamide] gave an IC50 [1] of 50 to 500 nM and an IC50 [2] of 50 to 500 nM.

`O=C(c1cc(Cl)c(O)c(S(=O)(=O)Nc2cc(-c3ccccc3)c(F)cc2F)c1)N1CC(O)C1` [I-129, 3-chloro-N-(4,6-difluoro-[1,1′-biphenyl]-3-yl)-2-hydroxy-5-(3-hydroxyazetidine-1-carbonyl)benzenesulfonamide] was tested, and the IC50 [1] was 50 to 500 nM and the IC50 [2, 3] was under 50 nM.

For `O=C(c1cc(Cl)c(O)c(S(=O)(=O)Nc2cc(-c3ccccc3)c(F)cc2F)c1)N1CC(F)C1` [I-130, 3-chloro-N-(4,6-difluoro-[1,1′-biphenyl]-3-yl)-5-(3-fluoroazetidine-1-carbonyl)-2-hydroxybenzenesulfonamide], the IC50 [1, 4] was under 50 nM and the IC50 [2, 3] was under 50 nM.

For `COc1ccc(-c2ccccc2)cc1NS(=O)(=O)c1cc(-c2nccn2C)cc(Cl)c1O` [I-131, 3-chloro-2-hydroxy-N-[4-methoxy-[1,1-biphenyl]-3-yl]-5-(1-methyl-1H-imidazol-2-yl)benzene-1-sulfonamide], the IC50 [1] was 50 to 500 nM and the IC50 [2] was 50 to 500 nM.

`Cn1ccnc1-c1cc(Cl)c(O)c(S(=O)(=O)Nc2cc(-c3ccccc3)ccc2O)c1` [I-133, 3-chloro-2-hydroxy-N-(4-hydroxy-[1,1′-biphenyl]-3-yl)-5-(1-methyl-1H-imidazol-2-yl)benzenesulfonamide] gave an IC50 [1] of 500 to 30000 nM and an IC50 [2] of 50 to 500 nM.

`CC(C)n1c(NS(=O)(=O)c2cc(Cl)cc(Cl)c2O)c(-c2ccc(F)cc2)c2ccccc21` [I-134, 3,5-dichloro-N-(3-(4-fluorophenyl)-1-isopropyl-1H-indol-2-yl)-2-hydroxybenzenesulfonamide] gave an IC50 [1] of 500 to 30000 nM and an IC50 [2] of 500 to 20000 nM.

`O=C(c1cc(Cl)c(O)c(S(=O)(=O)Nc2cc(C3CC3)c(F)cc2F)c1)N1CCC1` [I-137, 5-(azetidine-1-carbonyl)-3-chloro-N-(5-cyclopropyl-2,4-difluorophenyl)-2-hydroxybenzene-1-sulfonamide] showed an IC50 [1] of 50 to 500 nM and an IC50 [2] of 50 to 500 nM.

`O=C(Nc1cc(-c2ccccc2)c(F)cc1F)c1cc(Br)cc(Cl)c1O` [I-139, 5-bromo-3-chloro-N-(4,6-difluoro-[1,1′-biphenyl]-3-yl)-2-hydroxybenzamide] gave an IC50 [1] of 500 to 30000 nM and an IC50 [2] of 500 to 20000 nM.

`CO[C@@H]1CCN(C(=O)c2cc(Cl)c(O)c(S(=O)(=O)Nc3cc(-c4ccccc4)ccc3F)c2)C1` [I-141, 3-chloro-N-[4-fluoro-[1,1-biphenyl]-3-yl]-2-hydroxy-5-[(3R)-3-methoxypyrrolidine-1-carbonyl]benzene-1-sulfonamide] was tested, and the IC50 [1] was 500 to 30000 nM and the IC50 [2] was 50 to 500 nM.

Work on `CO[C@H]1CCN(C(=O)c2cc(Cl)c(O)c(S(=O)(=O)Nc3cc(-c4ccccc4)ccc3F)c2)C1` [I-142, 3-chloro-N-[4-fluoro-[1,1-biphenyl]-3-yl]-2-hydroxy-5-[(3S)-3-methoxypyrrolidine-1-carbonyl]benzene-1-sulfonamide] yielded an IC50 [1, 4] of under 50 nM and an IC50 [2, 3] of under 50 nM.

`O=C(O)COc1c(Cl)cc(Cl)cc1S(=O)(=O)Nc1cc(-c2ccccc2)ccc1F` [I-143] was tested, and the IC50 [1] was 500 to 30000 nM and the IC50 [2] was 500 to 20000 nM.

In the case of `COc1ccc(-c2cccnc2)cc1NS(=O)(=O)c1cc(C(=O)N2CCC2)cc(Cl)c1O` [I-144, 5-(azetidine-1-carbonyl)-3-chloro-2-hydroxy-N-[2-methoxy-5-(pyridin-3-yl)phenyl]benzene-1-sulfonamide], the IC50 [1] is reported as 500 to 30000 nM and the IC50 [2] is reported as 50 to 500 nM.

In the case of `COC(=O)c1cc(Cl)c(O)c(C(=O)Nc2cc(-c3ccccc3)c(F)cc2F)c1` [I-146, methyl 3-chloro-5-((4,6-difluoro-[1,1′-biphenyl]-3-yl)carbamoyl)-4-hydroxybenzoate], the IC50 [1] is reported as 500 to 30000 nM and the IC50 [2] is reported as 500 to 20000 nM.

With `C[C@@]1(O)CCN(C(=O)c2cc(Cl)c(O)c(S(=O)(=O)Nc3cc(-c4ccccc4)c(F)cc3F)c2)C1` [I-148, (R)-3-chloro-N-(4,6-difluoro-[1,1′-biphenyl]-3-yl)-2-hydroxy-5-(3-hydroxy-3-methylpyrrolidine-1-carbonyl)benzenesulfonamide] the IC50 [1, 4] was under 50 nM and the IC50 [2, 3] was under 50 nM.

Molecule `C[C@]1(O)CCN(C(=O)c2cc(Cl)c(O)c(S(=O)(=O)Nc3cc(-c4ccccc4)c(F)cc3F)c2)C1` [I-149, (S)-3-chloro-N-(4,6-difluoro-[1,1′-biphenyl]-3-yl)-2-hydroxy-5-(3-hydroxy-3-methylpyrrolidine-1-carbonyl)benzenesulfonamide] has an IC50 [1] of 50 to 500 nM and an IC50 [2, 3] of under 50 nM.

`CC(C)C(=O)Oc1c(Cl)cc(C(=O)N2CCC2)cc1S(=O)(=O)Nc1cc(-c2ccccc2)c(F)cc1F` [I-158, 4-(azetidine-1-carbonyl)-2-chloro-6-([4,6-difluoro-[1,1-biphenyl]-3-yl]sulfamoyl)phenyl 2-methylpropanoate] showed an IC50 [1] of 50 to 500 nM and an IC50 [2] of 50 to 500 nM.

`O=C(c1cc(Cl)c(O)c(S(=O)(=O)Nc2cc(-c3ccccc3)cc(F)c2F)c1)N1CCCC1` [I-159, 3-chloro-N-[4,5-difluoro-[1,1-biphenyl]-3-yl]-2-hydroxy-5-(pyrrolidine-1-carbonyl)benzene-1-sulfonamide] was tested, and the IC50 [1, 4] was under 50 nM and the IC50 [2, 3] was under 50 nM.

Molecule `O=C(c1cc(Cl)c(O)c(S(=O)(=O)Nc2cc(-c3ccccc3)cc(F)c2F)c1)N1CCC1` [I-160, 5-(azetidine-1-carbonyl)-3-chloro-N-[4,5-difluoro-[1,1-biphenyl]-3-yl]-2-hydroxybenzene-1-sulfonamide] has an IC50 [1, 4] of under 50 nM and an IC50 [2, 3] of under 50 nM.

In the case of `CC(=O)NC1CN(C(=O)c2cc(Cl)c(O)c(S(=O)(=O)Nc3cc(-c4ccccc4)c(F)cc3F)c2)C1` [I-162, N-[1-[3-chloro-5-([4,6-difluoro-[1,1-biphenyl]-3-yl]sulfamoyl)-4-hydroxybenzoyl]azetidin-3-yl]acetamide], the IC50 [1] is reported as 500 to 30000 nM and the IC50 [2] is reported as 50 to 500 nM.

For `O=C(O)COc1c(Br)cc(C(=O)N2CCC2)cc1S(=O)(=O)Nc1cc(-c2ccccc2)ccc1F` [I-192, 2-(4-(azetidine-1-carbonyl)-2-bromo-6-(N-(4-fluoro-[1,1′-biphenyl]-3-yl)sulfamoyl)phenoxy)acetic Acid], the IC50 [1] was 500 to 30000 nM and the IC50 [2] was 500 to 20000 nM.

With `O=C(c1cc(Cl)c(O)c(S(=O)(=O)Nc2cc(C3CC3)c(F)cc2F)c1)N1CCCC1` [I-193, 3-chloro-N-(5-cyclopropyl-2,4-difluorophenyl)-2-hydroxy-5-(pyrrolidine-1-carbonyl)benzene-1-sulfonamide] the IC50 [1] was 500 to 30000 nM and the IC50 [2] was 500 to 20000 nM.

`O=C(c1cc(Cl)c(O)c(S(=O)(=O)Nc2cc(C3CC3)c(F)cc2F)c1)N1CC(F)C1` [I-194, 3-chloro-N-(5-cyclopropyl-2,4-difluorophenyl)-5-(3-fluoroazetidine-1-carbonyl)-2-hydroxybenzene-1-sulfonamide] was tested, and the IC50 [1] was 500 to 30000 nM and the IC50 [2] was 50 to 500 nM.

`O=C(c1cc(Cl)c(O)c(S(=O)(=O)Nc2cc(-c3cccnc3)c(F)cc2F)c1)N1CCC1` [I-197, 5-(azetidine-1-carbonyl)-3-chloro-N-[2,4-difluoro-5-(pyridin-3-yl)phenyl]-2-hydroxybenzene-1-sulfonamide] was tested, and the IC50 [1] was 500 to 30000 nM and the IC50 [2] was 50 to 500 nM.

Work on `NC1CN(C(=O)c2cc(Cl)c(O)c(S(=O)(=O)Nc3cc(-c4ccccc4)c(F)cc3F)c2)C1` [I-200, 5-(3-aminoazetidine-1-carbonyl)-3-chloro-N-[4,6-difluoro-[1,1-biphenyl]-3-yl]-2-hydroxybenzene-1-sulfonamide] yielded an IC50 [1] of 50 to 500 nM and an IC50 [2, 3] of under 50 nM.

With `CC(C)(C)OC(=O)NC1CN(C(=O)c2cc(Cl)c(O)c(S(=O)(=O)Nc3cc(-c4ccccc4)c(F)cc3F)c2)C1` [I-201, tert-butyl N-[1-[3-chloro-5-([4,6-difluoro-[1,1-biphenyl]-3-yl]sulfamoyl)-4-hydroxybenzoyl]azetidin-3-yl]carbamate] the IC50 [1] was 500 to 30000 nM and the IC50 [2] was 500 to 20000 nM.

Work on `O=C(c1cc(Cl)c(O)c(S(=O)(=O)Nc2cc(-c3ccncc3)ccc2F)c1)N1CCC1` [I-202, 5-(azetidine-1-carbonyl)-3-chloro-N-[2-fluoro-5-(pyridin-4-yl)phenyl]-2-hydroxybenzene-1-sulfonamide] yielded an IC50 [1] of 500 to 30000 nM and an IC50 [2] of 50 to 500 nM.
